Test results from patent US20240285555A1, “COMPOSITIONS FOR THE TREATMENT OF COPPER DEFICIENCY AND METHODS OF USE” (priority 2018, published 2024).

Experiments:
[1] = test system: yeast coa6Δ cells expressing patient mutations (W26C, W33R and E54X); assay: Rescue of yeast coa6Δ cells expressing yeast-human chimeric COA6 with patient mutations; assay type: cell-based, Saccharomyces cerevisiae; conditions: 10 nM ES
Source text: Reagents. All the copper binding compounds were purchased from Sigma-Aldrich, except Elesclomol (ES), which was purchased from Selleckchem. The yeast-human hybrid (hyCOA6) gene construct was codon optimized for yeast and synthesized using GENEART® Gene Synthesis (Life Technologies). The hybrid gene hyCOA6 was cloned into pRS416 plasmid under the control of the yeast Coa6 native promoter. COA6 patient mutations were introduced by site-directed-mutagenesis (Agilent Technologies QuikChange Lightning) using hyCOA6 as a template. All the constructs were sequenced verified.
Yeast Strains and Culture Conditions. The authenticity of yeast strains was confirmed by PCR as well as by replica plating on dropout plates. Yeast cells were cultured in standard YP growth media including YPD (1% yeast extract, 2% peptone and 2% glucose), YPGal (2% galactose), YPGE (3% glycerol+1% ethanol), or synthetic media (SC glucose). […] Growth in liquid media was measured spectrophotometrically at 600 nm.
(§1) A number of copper-binding pharmacological agents were tested for their ability to rescue respiratory deficient growth of coa6Δ cells. […] To determine the biochemical basis for the observed respiratory rescue of coa6Δ cells, the assembly and activity of CcO-containing mitochondrial respiratory chain supercomplexes was measured by native-polyacrylamide gel electrophoresis blotting and in-gel activity assay, respectively. […]

coa6Δ cells = assay: Cellular and mitochondrial copper measurements by ICP-MS in yeast; assay type: cell-based, Saccharomyces cerevisiae; conditions: 20 nM ES
Method: (§2) FIGS. 2A, 2B, 2C, 2D and 2E illustrate elesclomol supplementation rescues CcO assembly defects by restoring mitochondrial copper levels of yeast S. cerevisiae coa6Δ cells. FIGS. 2A-2C illustrate bioenergetic parameters of wild type (WT), coa6Δ, and coa6Δ cells supplemented with 20 nM ES were cultured in YP galactose medium until early stationary growth phase. […] Error bars represent mean±SD (n=3, two-tailed unpaired Student's t-test *p<0.05, **p<0.005).
Cellular and Mitochondrial Copper Measurements. Cellular and mitochondrial copper levels were measured using the Perkin Elmer DRC II Inductively Coupled Plasma-Mass Spectrometer (ICP-MS). Intact yeast cells and isolated mitochondrial pellets were washed with 100 μM EDTA containing water, weighed, and digested with 40% nitric acid (TraceSELECT, Sigma) at 90° C. for 18 h. Samples were diluted in ultrapure metal-free water (TraceSELECT, Sigma) and analyzed by ICP-MS. Copper standard solutions were prepared by appropriate dilutions of commercially available mixed metal standards (BDH Aristar Plus). Copper concentrations in mammalian cells were also measured by ICP-MS.
ES scavenges copper from the culture medium, enters the cell as an ES-copper complex, and selectively accumulates in mitochondria where it dissociates from copper. […]

[2] = test system: CcO-containing mitochondrial respiratory chain supercomplexes; assay: Assembly and activity of CcO-containing supercomplexes (native PAGE blotting, in-gel activity); assay type: cell-based, Saccharomyces cerevisiae; conditions: 20 nM ES, YP galactose medium
Method: as §2
Immunoblotting and In-gel Activities. Sodium dodecyl sulfate polyacrylamide gel electrophoresis (SDS-PAGE) and Blue Native PAGE (BN-PAGE) were performed to separate denatured and native protein complexes, respectively. For SDS-PAGE, mitochondrial lysate ([…]) was separated on NuPAGE 4-12% Bis-Tris gels (Life Technologies, Carlsbad, CA). For BN-PAGE, yeast mitochondria were solubilized in buffer containing 1% digitonin (Life Technologies) by incubating for 15 min at 4° C. […]
as §1

[3] = test system: Ctr1^−/− zebrafish embryos; assay: Pigmentation defect in embryos from Ctr1 heterozygous zebrafish crosses; assay type: in vivo
Method: Zebrafish Experiments. […] Morpholino-based experiments were performed.
ES Supplementation Rescues Copper Deficiency Phenotypes in Zebrafish Models. To determine whether ES can rescue phenotypes associated with copper deficiency in an intact developing vertebrate animal model, zebrafish embryos with a null mutation in the gene encoding the plasma membrane copper importer Ctr1 were utilized. Zebrafish were chosen because of the ability to quickly monitor the pigmentation defect that arises due to the copper requirement of tyrosinase, an enzyme that catalyzes the critical step in melanin biosynthesis. Wild type zebrafish embryos have a characteristic melanin pigmentation pattern visible at 48 hpf. […] […] To determine whether ES can rescue the observed CcO assembly defect, clutches of embryos were grown from heterozygous Ctr1 crosses in the presence of ES until 10 dpf and levels of Cox1 in their mitochondrial extracts were measured.

sco1Δ cells = assay: Respiratory growth rescue of sco1Δ yeast; assay type: cell-based, Saccharomyces cerevisiae; conditions: non-fermentable media, 37° C.
Method: Yeast Strains and Culture Conditions. The authenticity of yeast strains was confirmed by PCR as well as by replica plating on dropout plates. Yeast cells were cultured in standard YP growth media including YPD (1% yeast extract, 2% peptone and 2% glucose), YPGal (2% galactose), YPGE (3% glycerol+1% ethanol), or synthetic media (SC glucose). For qualitative growth measurement, 10-fold serial dilutions of overnight cultures were spotted on YPD or YPGE plates and incubated at 30° C. and 37° C. for the indicated period. Growth in liquid media was measured spectrophotometrically at 600 nm.
ES Rescues Many Different Yeast Mutants with Impaired Copper Metabolism. To test the specificity of ES mediated rescue, a number of yeast mutants of genes required for maintaining cellular and mitochondrial copper homeostasis were shortlisted. Genes were prioritized based on their evolutionary conservation, presence of pathogenic mutations in humans, and/or the existence of a related mouse phenotype (Table 3, shown below). […] Most of the yeast mutants were rescued with ES supplementation, albeit to different degrees, reflecting their distinct roles in cellular and mitochondrial copper homeostasis.

For `CN(NC(=O)CC(=O)NN(C)C(=S)c1ccccc1)C(=S)c1ccccc1` [ES, elesclomol], the “rescue of respiratory growth” value [1] was “rescued”, the mitochondrial copper levels (coa6Δ cells) was “almost complete rescue” and the “total cellular copper levels” value (coa6Δ cells) was “moderately increased”. For the same compound, the “abundance and activity of CcO-containing supercomplexes” value [2] was “restored the abundance and activity of CcO-containing supercomplexes to near wild type levels”, the “melanin pigmentation at 48 hpf” value ([3]; 10 nM ES from 3 hpf) was “all of the ES treated embryos from the same crosses were pigmented” and the “rescue of the pigmentation defect” value ([3]; 100 nM ES or the equivalent dose of copper) was “rescue of the pigmentation defect”. The “rescue of respiratory growth” value (sco1Δ cells) was “failed to rescue”.
